system: Human Dermal Fibroblasts (HDF); experiment: BrdU cell proliferation assay; format: cell-based; settings: HDF incubated 24 h with 5, 0.5 or 0.05 μg/ml synthetic peptide; percentage of untreated control
Description: BrDu is incorporated into newly synthesised DNA strands of actively proliferating cells. Following partial denaturation of double stranded DNA, Brdu is detected immunochemically allowing the assessment of the population of cells which are synthesizing DNA.
Human Dermal Fibroblasts (HDF—Sigma 10605a) were seeded in a 96 well plate at 10,000 cells per well in DMEM containing 10% fetal calf serum (FCS), 1% Pen/strep, 1% L-glutamine and allowed to adhere for 24 h.
Following the initial 24 h incubation the cells were incubated with 5 μg/ml, 0.5 μg/ml or 0.05 μg/ml synthetic peptide for 24 h respectively.
After 18 h incubation with synthetic peptides 20 μl BrDu reagent was added to each well.
At 24 h incubation the cell were fixed and the amount of […] was measured using the BrdU Cell Proliferation Assay, all steps were carried out according to the manufacturer's instructions.
Results were calculated as a percentage of the untreated control. An increase in optical density reading indicates greatER incorporation of BrDu and increase cell proliferation.

| Substance | INCREASE IN PROLIFERATION |
| --- | --- |
| 73 (ASSNLDLLGFG) [compound 73] | 16% |
| 74 (DEEEEQGEEEINK) [compound 74] | 29% |
| 83 (SRGPIYSNE) [compound 83] | 32% |
| 84 (EDDEEEEQGEEEINK) [compound 84] | 20% |
| 85 (DDEEEEQGEEEINK) [compound 85] | 35% |
| 93 (ITASSNLNLLGFG) [compound 93] | 26% |
| 97 (LVIPVNGPGKFE) [compound 97] | 26% |
| 98 (LVIPVNGPGKFEA) [compound 98] | 49% |
| 105 (LVIPVNGPGKF) [compound 105] | 40% |
| 112 (VVIIPAGHPVAITASSNLNLLGFG) [compound 112] | 15% |
| 114 (YPQLQDLDL) [compound 114] | 119% |
| 121 (LVIPVNGPGK) [compound 121] | 48% |
| 124 (VIPVNGPGK) [compound 124] | 15% |
| 146 (RHGEWRPSY) [compound 146] | 80% |
| 158 (NYDEGSEPRVPAQRE) [compound 158] | 21% |
| 181 (TIKLPAGTTSYLVNQDDEEDLRLVD) [compound 181] | 33% |
| 222 (IDGYDTPVEGR) [compound 222] | 110% |
| 226 (IYGPDTGVDYKDNQMR) [compound 226] | 30% |
| 247 (EGYYGEQQQQPGMTR) [compound 247] | 28% |
| 248 (GYYGEQQQQPGMTR) [compound 248] | 86% |
| 249 (EEGYYGEQQQQPGMTR) [compound 249] | 30% |
| 252 (SSEEGYYGEQQQQPGMTR) [compound 252] | 111% |
| 253 (SEEGYYGEQQQQPGMTR) [compound 253] | 112% |
| 256 (YGEQQQQPGMTR) [compound 256] | 117% |

| Substance | INCREASE IN PROLIFERATION |
| --- | --- |
| 257 (YYGEQQQQPGMTR) [compound 257] | 118% |
| 270 (TVFNGVLRPGQLL) [compound 270] | 47% |
| 272 (NGVLRPGQL) [compound 272] | 97% |
| 285 (DALEPDNR) [compound 285] | 81% |
| 330 (VIPAGHPVAVR) [compound 330] | 18% |
| 337 (IEKILLEE) [compound 337] | 8% |
| 341 (EVEERSQNIF) [compound 341] | 83% |
| 359 (GAFTPLQYKSYQD) [compound 359] | 15% |
| 365 (GAFTPLQYK) [compound 365] | 58% |
| 403 (LGAPDVGHPM) [compound 403] | 51% |
| 410 (YRELGAPDVGHPMSE) [compound 410] | 73% |
| 452 (HPRPPKPDAPR) [compound 452] | 76% |
| 453 (LQQAPPPPQR) [compound 453] | 25% |
| 454 (VGWGEQPWSPY) [compound 454] | 38% |
| 455 (FHMPP) [compound 455] | 47% |
| 457 (FWMA) [compound 457] | 114% |
| 460 (HMPSS) [compound 460] | 38% |
| 461 (HRFR) [compound 461] | 85% |
| 462 (HRRS) [compound 462] | 15% |
| 463 (HSPR) [compound 463] | 100% |
| 464 (HWFA) [compound 464] | 18% |
| 465 (MFRR) [compound 465] | 96% |
| 467 (MPPS) [compound 467] | 90% |
| 468 (MPRR) [compound 468] | 82% |

system: Human Dermal Fibroblasts (HDF); experiment: BrdU cell proliferation assay; format: cell-based; settings: text on FIGS. 1-100; incubated with synthetic peptide 24 h; vs untreated control

| Substance | increase in HDF cell proliferation |
| --- | --- |
| ASSNLDLLGFG [SEQ ID NO: 73] | 16% |
| DDEEEEQGEEEINK [SEQ ID NO: 85] | 35% |
| DEEEEQGEEEINK [SEQ ID NO: 74] | 29% |
| DSINALEPDHR [SEQ ID NO: 474] | 121% |
| EDDEEEEQGEEEINK [SEQ ID NO: 84] | 20% |
| EEGYYGEQQQQPGMTR [SEQ ID NO: 249] | 30% |
| EGYYGEQQQQPGMTR [SEQ ID NO: 247] | 28% |
| EVEERSQNIF [SEQ ID NO: 341] | 83% |
| FHMPP [SEQ ID NO: 455] | 47% |
| FWM (FWMA) [SEQ ID NO: 457] | 114% |
| GAFTPLQYK [SEQ ID NO: 365] | 58% |
| GAFTPLQYKSYQD [SEQ ID NO: 359] | 15% |
| GALMLPHYN [SEQ ID NO: 504] | 119% |
| GALMLPHYNSR [SEQ ID NO: 505] | 118% |
| GYYGEQQQQPGMTR [SEQ ID NO: 248] | 86% |
| HMPSS [SEQ ID NO: 460] | 38% |
| HPMS [SEQ ID NO: 495] | 68% |
| HPRPPKPDAPR [SEQ ID NO: 452] | 76% |
| HRFR [SEQ ID NO: 461] | 85% |
| HRRS [SEQ ID NO: 462] | 15% |
| HSPR [SEQ ID NO: 463] | 100% |
| HWF (HWFA) [SEQ ID NO: 464] | 18% |
| IDGYDTPVEGR [SEQ ID NO: 222] | 110% |

| Substance | increase in HDF cell proliferation |
| --- | --- |
| IEKILLEE [SEQ ID NO: 337] | 8% |
| IFEDAITIPGR [SEQ ID NO: 477] | 81% |
| ITASSNLNLLGFG [SEQ ID NO: 93] | 26% |
| IYGPDTGVDYKDNQMR [SEQ ID NO: 226] | 30% |
| KTLDYWPSLR [SEQ ID NO: 479] | 106% |
| LDALEPDNRIESE [SEQ ID NO: 478] | 76% |
| LEPDNR [SEQ ID NO: 485] | 81% |
| LGAPDVGHPM [SEQ ID NO: 403] | 51% |
| LQQAPPPPQR [SEQ ID NO: 453] | 25% |
| LRGFSK [SEQ ID NO: 501] | 43% |
| LVIPVNGPGK [SEQ ID NO: 121] | 48% |
| LVIPVNGPGKF [SEQ ID NO: 105] | 40% |
| LVIPVNGPGKFE [SEQ ID NO: 97] | 26% |
| LVIPVNGPGKFEA [SEQ ID NO: 98] | 49% |
| LVSHPIAAHEGR [SEQ ID NO: 482] | 113% |
| MFRR [SEQ ID NO: 465] | 96% |
| MPMP [SEQ ID NO: 497] | 58% |
| MPPS [SEQ ID NO: 467] | 90% |
| MPRR [SEQ ID NO: 468] | 82% |
| NGVLRPGQL [SEQ ID NO: 272] | 97% |
| NYDEGSEPRVPAQRE [SEQ ID NO: 158] | 21% |
| PHMP [SEQ ID NO: 470] | 119% |
| PHMPS [SEQ ID NO: 471] | 38% |

| Substance | increase in HDF cell proliferation |
| --- | --- |
| PNSM [SEQ ID NO: 499] | 113% |
| PRRF [SEQ ID NO: 472] | 77% |
| RHGEWGPSY [SEQ ID NO: 480] | 102% |
| RHGEWRPSY [SEQ ID NO: 146] | 80% |
| RSQNIF [SEQ ID NO: 502] | 68% |
| SEEGYYGEQQQQPGMTR [SEQ ID NO: 253] | 112% |
| SRGPIYSNE [SEQ ID NO: 83] | 32% |
| SSEEGYYGEQQQQPGMTR [SEQ ID NO: 252] | 111% |
| TIKLPAGTTSYLVNQDDEEDLRLVD [SEQ ID NO: 181] | 33% |
| TVFNGVLRPGQLL [SEQ ID NO: 270] | 47% |
| VGWGEQPWSPY [SEQ ID NO: 454] | 38% |
| VIPAGHPVAVR [SEQ ID NO: 330] | 18% |
| VIPVNGPGK [SEQ ID NO: 124] | 15% |
| VVIIPAGHPVAITASSNLNLLGFG [SEQ ID NO: 112] | 15% |
| WDP (WDPA) [SEQ ID NO: 500] | 6% |
| WMK (WMKA) [SEQ ID NO: 473] | 41% |
| YGEQQQQPGMTR [SEQ ID NO: 256] | 117% |
| YLRGFS [SEQ ID NO: 503] | 125% |
| YPQLQDLDL [SEQ ID NO: 114] | 119% |
| YRELGAPDVGHPMSE [SEQ ID NO: 410] | 73% |
| YYGEQQQQPGMTR [SEQ ID NO: 257] | 118% |

Source: patent US11707500B2, “Growth promoting peptides, and uses thereof” (NURITAS LIMITED, priority 2015, dated 2023)
